Measured values published in EP0337503B1, “Fumigation methods and compositions” (Entek Corporation, priority 1983, dated 1984).

Columns and labels:
[1] = tested on: nematode larvae; experiment: In-vitro nematocidal test: larvae treated in aqueous suspension, injected into root zone of tomato plants, gall count; assay type: in vivo, Meloidogyne incognita; conditions: larvae treated 1 hour; for Gall Count, replicate 2: control 88; for Gall Count, Mean: control 89; for Gall Count, replicate 1: control 90
Procedure: The procedure of Example 2 is repeated except that potassium tetrathiocarbonate is substituted for stabilized ammonium tetrathiocarbonate and an in-vitro nematocidal test is used. In the in-vitro test, the nematode larvae are treated in aqueous suspension for 1 hour at the concentrations of fumigant given in the following table, washed twice with water, and injected into the active root zone of the tomato plants. After thirty days the roots are harvested, examined for galling, giving the results summarized below.

[2] = tested on: root-knot nematode larvae (Meloidogyne incognita); experiment: Greenhouse nematocide experiment with tomato plants, soil drench, root gall count; assay type: in vivo; conditions: 30 days; for Gall Counts, replicate 3: control 1; for Gall Counts, Mean: control 4.0; for Gall Counts, replicate 2: control 7; for Gall Counts, replicate 1: control 4
Procedure: In the experiment, thirty containers are used, each containing about 500 grams of sterilized sandy loam soil. Each container contains one tomato plant. Each container is injected with four 5-milliliter portions of extract from nematode-infested pepper roots, one inch below the soil surface, producing an initial population of 2000 root-knot nematode larvae (Meloidogyne incognita) per container.
Ten treatments are replicated three times, each treatment consisting of drenching the soil with a solution containing the fumigant to provide the dosage of CS2 given in the following table. The solutions are diluted with sufficient water to saturate the soil. The treatments include calcium tetrathiocarbonate, stabilized ammonium tetrathiocarbonate, and carbon disulfide at three levels, plus an untreated control. After drenching, each container is allowed to stand at ambient conditions. The plants are harvested after 30 days of growth, and soil is removed from the roots by a gentle washing with water. By use of a magnifying glass, the number of root galls is counted on each plant.
Results are summarized below, wherein the "Application" represents milligrams of treatment per kilogram of soil, calculated as the thiocarbonate salt and the equivalent carbon disulfide. Gall counts are mean values from the three replicates.

[3] = Effect of pH on production of CS2 from thiocarbonates in citrate-phosphate buffers, gas chromatography of air; assay type: physicochemical
Procedure: Pure carbon disulfide is also injected, for comparison. A syringe is used to periodically sample air in the bottle, and the air is analyzed by gas chromatography.

[4] = Decomposition in sandy loam soil at different moisture, CS2 in air space by gas chromatography; assay type: physicochemical; conditions: hours to maximum CS2 concentration in the air space
Procedure: A sandy loam soil is placed in 1-liter glass bottles, fitted with stoppers having fluorocarbon liners and silicone rubber septa, to give a soil depth of about 4 cm. […] Thiocarbonate solution or carbon disulfide is injected near the bottom of the soil layer, the bottles are promptly sealed, and the air space in the bottles is sampled at intervals with a syringe, for gas chromatographic analysis of CS2. Results are summarized below, wherein degradation time is the number of hours required to achieve the maximum CS2 concentration in the air space.

[5] = Storage stability: loss of ability of aqueous solutions to generate carbon disulfide upon contact with strong acid; assay type: physicochemical; conditions: aqueous solutions of tetrathiocarbonate salts, about 14 to about 16 percent by weight carbon disulfide equivalent, air-tight glass containers, 49° C.; listed as Ca^++
Procedure: Various tetrathiocarbonate salts are evaluated for storage stability by measuring the loss of the ability of aqueous solutions thereof to generate carbon disulfide upon contact with strong acid. Aqueous solutions of the salts listed in the following table, having an equivalent of from about 14 to about 16 percent by weight carbon disulfide, are stored in air-tight glass containers at a temperature of 49° C.

[6] = tested on: Phytophthora cinnamomi; experiment: Fungicidal test, radial growth of mycelia colonies; assay type: cell-based
Procedure: (§1) Thiocarbonate solutions are used in a test of their fungicidal properties. Cultures of four plant pathogenic fungi are grown upon potato dextrose agar at room temperature, in diffuse natural lighting. After one week, square blocks having 2 millimeter sides are cut from the edges of actively growing mycelia spots on the agar.
(§2) The blocks are immersed in sterile deionized water, as a control, or in dilutions of thiocarbonate solutions using the sterile water, in a closed container. Subsequently, the blocks are removed and placed upon agar in clean plates, and mycelia are allowed to grow for one week.
(§3) Radial growth of mycelia colonies is measured for each of the six to eight replicate plates used for a particular fungus, and average colony radius is calculated. Percent control is defined by the following equation: Percent control =[1-((Average radius of treated plates)/(Average radius of control plates))]x100 [formula]
(§4) Concentrations given for solutions used to treat the agar blocks are expressed in grams of thiocarbonate solution per liter of diluted solution.

[7] = tested on: Fusarium oxysporum; experiment: Fungicidal test, radial growth of mycelia colonies; assay type: cell-based; conditions: listed as CaCS4 (2.8%CS2)
Procedure: as §1, §2, §3, §4

[8] = tested on: Sclerotium rolfsii; experiment: Fungicidal test, radial growth of mycelia colonies; assay type: cell-based
Procedure: as §1, §2, §3, §4

[9] = tested on: Verticillium dahliae; experiment: Fungicidal test, radial growth of mycelia colonies; assay type: cell-based
Procedure: as §1, §2, §3, §4

[10] = 50 ppm salt (6.3 ppm CS2 equiv. CaCS4; 6.5 ppm K2CS4)
[11] = 100 ppm salt (12.5 ppm CS2 equiv. CaCS4; 13 ppm K2CS4)
[12] = 150 ppm salt (18.8 ppm CS2 equiv. CaCS4; 19.5 ppm K2CS4)
[13] = highest application: 638/89 ppm ((NH4)2CS4·(NH4)2S), 730/91 (CaCS4), 97 ppm (CS2)
[14] = lowest application: 213/30 ppm ((NH4)2CS4·(NH4)2S), 245/31 (CaCS4), 32 ppm (CS2)
[15] = middle application: 425/60 ppm ((NH4)2CS4·(NH4)2S), 490/61 (CaCS4), 65 ppm (CS2)
[16] = 1 g/l, listed as CaCS4 (2.8%CS2)
[17] = 10 g/l, listed as CaCS4 (2.8%CS2)

S=C(S)SS [CaCS4, calcium tetrathiocarbonate]
Gall Count, replicate 2 [1, 10]: 149 | Gall Count, Mean [1, 10]: 167 | Gall Count, replicate 1 [1, 10]: 185 | Gall Count, replicate 2 [1, 11]: 184 | Gall Count, Mean [1, 11]: 158 | Gall Count, replicate 1 [1, 11]: 132 | Gall Count, replicate 2 [1, 12]: 66 | Gall Count, Mean [1, 12]: 49 | Gall Count, replicate 1 [1, 12]: 32 | Gall Counts, replicate 3 [2, 13]: 9 | Gall Counts, Mean [2, 13]: 7.0 | Gall Counts, replicate 2 [2, 13]: 9 | Gall Counts, replicate 1 ([2]; highest application: 638 ppm salt/89 ppm Eq. CS2 ((NH4)2CS4·(NH4)2S), 730/91 (CaCS4), 97 ppm (CS2)): 3 | Gall Counts, replicate 3 [2, 14]: 23 | Gall Counts, Mean [2, 14]: 15.7 | Gall Counts, replicate 2 [2, 14]: 8 | Gall Counts, replicate 1 ([2]; lowest application: 213 ppm salt/30 ppm Eq. CS2 ((NH4)2CS4·(NH4)2S), 245/31 (CaCS4), 32 ppm (CS2)): 16 | Gall Counts, replicate 3 [2, 15]: 7 | Gall Counts, Mean [2, 15]: 7.3 | Gall Counts, replicate 2 [2, 15]: 4 | Gall Counts, replicate 1 ([2]; middle application: 425 ppm salt/60 ppm Eq. CS2 ((NH4)2CS4·(NH4)2S), 490/61 (CaCS4), 65 ppm (CS2)): 11 | Half-life (minutes) for production of carbon disulfide ([3]; pH 5.2, 125 milligrams per liter of thiocarbonate ion): 1 min | Half-life (minutes) for production of carbon disulfide ([3]; pH 6.0, 125 milligrams per liter of thiocarbonate ion): 1.8 min | Half-life (minutes) for production of carbon disulfide ([3]; pH 7.0, 125 milligrams per liter of thiocarbonate ion): 2.7 min | Half-life (minutes) for production of carbon disulfide ([3]; pH 8.0, 125 milligrams per liter of thiocarbonate ion, CaCS4 values above pH 7 called unreliable): 8.0 min | Half-life (minutes) for production of carbon disulfide ([3]; pH 9.0, 125 milligrams per liter of thiocarbonate ion, CaCS4 values above pH 7 called unreliable): 11.3 min | Degradation Time ([4]; Soil Moisture 0 % of Saturation): 4 h | Degradation Time ([4]; Soil Moisture 50 % of Saturation): 5 h | Degradation Time ([4]; Soil Moisture 100 % of Saturation): 48 h | Half-life (months) [5]: 5.0 months | Percent Control Phytophthora cinnamomi [6, 16]: 56% | Percent Control Phytophthora cinnamomi [6, 17]: 56% | Percent Control Phytophthora cinnamomi ([6]; 100 g/l): 100% | Percent Control Fusarium oxysporum ([7]; 1 g/l): 3% | Percent Control Fusarium oxysporum ([7]; 10 g/l): 18% | Percent Control Fusarium oxysporum ([7]; 100 g/l thiocarbonate solution per liter of diluted solution): 100% | Percent Control Sclerotium rolfsii [8, 16]: 46% | Percent Control Sclerotium rolfsii [8, 17]: 62% | Percent Control Sclerotium rolfsii ([8]; 100 g/l): 100% | Percent Control Verticillium dahliae [9, 16]: 13% | Percent Control Verticillium dahliae [9, 17]: 22% | Percent Control Verticillium dahliae ([9]; 100 g/l): 100%
